From patent US11149028B2, “Methods for treating melanoma using small molecules” (NOVA SOUTHEASTERN UNIVERSITY, priority 2016, dated 2021)
Entries after “also recorded” stand apart in the source; their conditions may differ.

Tests used:
[1] = system: A549 non-small cell lung cancer cell line; test: CellTiter-Glo viability assay, A549 cells; format: cell-based; conditions: individual compounds
Protocol: Mixture libraries were solubilized in 3% DMSO/H2O and added to polypropylene 384 well plates (Greiner cat #781280). 1,250 CHO-K1, A549, or M14 cells were plated in 384-well plates in 5 μL of serum-free media (F12 for CHO-K1 and A549, DMEM for M14). Test compounds and gefitinib (pharmacological assay control) were prepared as 10-point, 1:3 serial dilutions starting at 300 then added to the cells (5 μL per well) using the Biomek NX^P. Plates were incubated for 72 h at 37° C., 5% CO2 and 95% RH. After incubation, 5 μL of CellTiter-Glo® (Promega cat #: G7570) were added to each well, and incubated for 15 min at room temperature. Luminescence was recorded using a Biotek Synergy H4 multimode microplate reader. Viability was expressed as a percentage relative to wells containing media only (0%) and wells containing cells treated with 1% DMSO only (100%). Three parameters were calculated on a per-plate basis: (a) the signal-to-background ratio (SB); (b) the coefficient for variation [CV; CV=(standard deviation/mean)×100)] for all compound test wells; and (c) the Z′-factor (18). The IC50 value of the pharmacological control (gefitinib, LC Laboratories #G-4408) was also calculated to ascertain the assay robustness. Time course viability assay was performed as described for library screening with luminescence measurements performed at 4, 24, 48, and 72 h.

HEPG2 cell line = test: Viability of HEPG2 liver cancer cells; format: cell-based
HDAC1 = HDAC1 (Homo sapiens, UniProt Q13547); test: HDAC inhibition testing; format: biochemical; conditions: up to 100 μM
HDAC6 = HDAC6 (Homo sapiens, UniProt Q9UBN7); test: HDAC inhibition testing; format: biochemical; conditions: up to 100 μM
WM266-4 cells [2] = test: CellTiter-Glo cell viability assay, WM266-4 (including rescue assays); format: cell-based, human; conditions: for viability of WM266-4 cells: 24 h after addition
Protocol: Cells were plated in 384-well plates in 8 μL of media. Test compounds and dabrafenib (pharmacological assay control) were prepared as 10-point, 1:3 serial dilutions starting at 300 μM, then added to the cells (4 μL per well) using the Biomek Plates were incubated for 72 h at 37° C., 5% CO2 and 95% relative humidity. After incubation, 4 μL of CellTiter-Glo® (Promega cat #: G7570) were added to each well, and incubated for 15 min at room temperature. Luminescence was recorded using a Biotek Synergy H4 multimode microplate reader. Viability was expressed as a percentage relative to wells containing media only (0%) and wells containing cells treated with DMSO only (100%). Three parameters were calculated on a per-plate basis: (a) the signal-to-background ratio (SB); (b) the coefficient for variation [CV; CV=(standard deviation/mean)×100)] for all compound test wells; and (c) the Z′-factor (18). The IC50 value of the pharmacological control (dabrafenib, LC Laboratories #G-4408) was also calculated to ascertain the assay robustness. In case of viability rescue assays, cells were pre-treated with caspase, calpain, and autophagy inhibitors for 1-3 h before addition of test compounds. Time course viability assay was done with luminescence measurements performed at 4, 24, 48, and 72 h.

[3] = system: MAPK/PI3K dual phosphorylation of WM266-4 cells; test: MAPK-Akt flow cytometry assay; format: cell-based, human; conditions: 48 h, 25 μM
Protocol: WM266-4 cells were seeded at 250,000 cells/well in E-MEM medium supplemented with 10% FBS and 1% penicillin/streptomycin in 6 well plates (Greiner Bio-One CellStar cat #655180) and allowed to adhere overnight. After incubation cells were treated with control (25 μM dabrafenib+25 μM trametinib), and 25 μM 2155-14 and 18 for 24 and 48 hours. Manufacturer's instructions for Muse™ PI3K/MAPK Dual Pathway Activation kit (EMD Millipore MCH200108) were followed. Cells were harvested, washed with PBS, and re-suspended in 1× assay buffer supplemented with fixation buffer and incubated on ice for 10 min. Cells were permeabilized with permeablization buffer supplied with the kit and incubated with an antibody cocktail (5 μL of Anti-Akt/PKB+5 μL of Anti-phospho-Akt). Cells were analyzed on Muse flow cytometer (EMD Millipore) using PI3K/MAPK Dual Pathway sub-routine.

[4] = system: caspase 8 in WM266-4 cells; test: Caspase 8 activity assay; format: cell-based, human; conditions: 0 and 4 h
Protocol: (§1) WM266-4 and M14 cells were plated in 384-well plates in 5 μL of complete media (EMEM and RPMI-1640, respectively). 5 μL of 200 μM 2155-14 and 2155-18 were added to the cells. Plates were incubated at 37° C., 5% CO2 and 95% relative humidity for various lengths of time. After incubation, 5 μL of caspase 3/7, caspase 8, and caspase 9 Glo® reagent (Promega cat #: G7570) were added to each well, and incubated for 15 min at room temperature. Luminescence was recorded using a Biotek Synergy H4 multimode microplate reader.

[5] = system: caspase 9 in WM266-4 cells; test: Caspase 9 activity assay; format: cell-based, human; conditions: 0 and 4 h
Protocol: as §1

WM266-4 cells [6] = test: Cell staining for autophagy (autophagosome dye); format: cell-based, human; conditions: for autophagy staining: 100 μM; for autophagy staining / morphology of unstained cells: 4 and 24 h; for morphology of unstained cells: bright field
Protocol: WM266-4 cells were seeded at 10,000 cells/well in 0.1 mL of E-MEM medium supplemented with 10% FBS and 1% penicillin/streptomycin in 96 well plates (Greiner Bio-One CellStar cat #655180) and allowed to adhere overnight. After overnight incubation 100 μM 2155-14, 2155-18, 50 nM hnRNPH2 siRNA or 25 μM 2476-67.2 were added and incubated for various length of time. Cells were rinsed with warm PBS and stained with CYTO-ID® 1.0 Autophagy reagent (Enzo ENZ-51031-0050) and counterstained with DAPI. Cells were imaged using Cytation 5 imager (Biotek Inc, Winooski, Vt.) using GFP and DAPI filter sets. For % autophagic cells calculations cell counts were conducted using DAPI-stained nuclei and Object Sum Area value was obtained from at least 1,000 cells/well using DAPI channels. To obtain number of cells undergoing autophagy the cell count was conducted using GFP channel. Both GFP and DAPI cell counts were conducted using optimized algorithm in automatic mode. 8 replicate wells were used. % autophagic cells was calculated using Equation 1:% autophagic cells=100%*(number of cells, GFP channenumber of cells, DAPI channel)
To calculate staining intensity, the Object Sum Area value from GFP channel was obtained and divided by number of cells using DAPI channel. Both GFP and DAPI cell counts were conducted using optimized algorithm in automatic mode. 3 replicate wells were used.

HDAC1, sequence (Q13547 whole entry, species assumed): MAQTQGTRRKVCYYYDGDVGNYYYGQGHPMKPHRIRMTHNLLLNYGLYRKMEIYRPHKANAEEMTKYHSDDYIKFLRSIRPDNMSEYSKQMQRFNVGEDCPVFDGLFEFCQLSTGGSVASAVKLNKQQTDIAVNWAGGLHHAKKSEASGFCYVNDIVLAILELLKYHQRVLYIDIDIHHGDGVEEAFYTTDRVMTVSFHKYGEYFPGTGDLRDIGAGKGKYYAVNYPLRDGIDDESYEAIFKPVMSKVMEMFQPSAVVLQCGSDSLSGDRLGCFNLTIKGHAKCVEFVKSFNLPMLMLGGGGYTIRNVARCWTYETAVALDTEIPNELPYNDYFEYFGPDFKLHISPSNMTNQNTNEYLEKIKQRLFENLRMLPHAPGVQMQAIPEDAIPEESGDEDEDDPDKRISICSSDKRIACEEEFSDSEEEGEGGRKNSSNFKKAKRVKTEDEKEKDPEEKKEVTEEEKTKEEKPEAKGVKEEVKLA
HDAC6, sequence (Q9UBN7 whole entry, species assumed): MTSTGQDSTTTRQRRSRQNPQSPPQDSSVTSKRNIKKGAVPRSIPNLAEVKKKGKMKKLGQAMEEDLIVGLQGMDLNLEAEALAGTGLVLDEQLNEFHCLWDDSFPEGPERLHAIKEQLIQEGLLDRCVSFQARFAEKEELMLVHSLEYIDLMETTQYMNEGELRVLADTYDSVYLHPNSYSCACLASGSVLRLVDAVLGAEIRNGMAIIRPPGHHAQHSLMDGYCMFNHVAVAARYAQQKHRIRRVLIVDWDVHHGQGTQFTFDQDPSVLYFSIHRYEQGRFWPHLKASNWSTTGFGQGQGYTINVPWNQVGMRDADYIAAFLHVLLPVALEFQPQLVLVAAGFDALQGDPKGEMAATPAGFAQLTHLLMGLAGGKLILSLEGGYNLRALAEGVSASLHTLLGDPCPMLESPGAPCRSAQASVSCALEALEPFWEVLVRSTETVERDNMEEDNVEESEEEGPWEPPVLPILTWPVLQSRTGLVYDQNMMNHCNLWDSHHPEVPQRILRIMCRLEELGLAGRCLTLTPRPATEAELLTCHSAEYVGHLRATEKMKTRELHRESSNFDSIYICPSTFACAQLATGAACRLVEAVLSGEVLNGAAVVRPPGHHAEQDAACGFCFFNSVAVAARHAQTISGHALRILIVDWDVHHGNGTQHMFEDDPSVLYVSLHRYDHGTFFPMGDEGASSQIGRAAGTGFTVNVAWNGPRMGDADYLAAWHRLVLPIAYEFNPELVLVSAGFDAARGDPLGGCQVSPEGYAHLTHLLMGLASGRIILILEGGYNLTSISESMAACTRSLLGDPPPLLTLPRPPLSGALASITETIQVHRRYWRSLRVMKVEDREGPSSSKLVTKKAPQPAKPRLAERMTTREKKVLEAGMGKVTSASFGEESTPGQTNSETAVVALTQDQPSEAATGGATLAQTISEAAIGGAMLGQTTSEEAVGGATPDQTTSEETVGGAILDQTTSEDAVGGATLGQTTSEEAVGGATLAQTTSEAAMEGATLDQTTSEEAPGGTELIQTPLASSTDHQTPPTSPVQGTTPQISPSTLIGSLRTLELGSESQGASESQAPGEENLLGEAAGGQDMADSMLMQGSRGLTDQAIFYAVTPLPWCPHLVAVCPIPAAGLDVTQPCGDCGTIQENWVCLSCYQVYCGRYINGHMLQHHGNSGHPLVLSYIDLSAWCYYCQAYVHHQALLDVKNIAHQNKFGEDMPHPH

| HDAC1 inhibition (HDAC1) | HDAC6 inhibition (HDAC6) | SMILES | selectivity against HEPG2 cell line (HEPG2 cell line) | viability of WM266-4 cells (WM266-4 cells [2]) | caspase 8 signal vs untreated control [4] | caspase 9 signal vs untreated control [5] | autophagy staining (WM266-4 cells [6]) | morphology of unstained cells (WM266-4 cells [6]) | other results |
| --- | --- | --- | --- | --- | --- | --- | --- | --- | --- |
| lack of HDAC inhibition | lack of HDAC inhibition | O=C1NC[C@H](Cc2ccccc2)N(C[C@@H]2CCCN2C[C@H](Cc2ccccc2)N2C[C@H](Cc3ccc(O)cc3)N(CCC34CC5CC(CC(C5)C3)C4)C(=O)C2=O)C1=O [Compound 2155-18, (S)-4-(2-(adamantan-1yl)ethyl)-1-((S)-1-((S)-2-(((S)-6-benzyl-2,3-dioxopiperazin-1-yl)methyl)pyrrolidin-1-yl)-3-phenylpropan-2-yl)-5-(4-hydroxybenzyl)piperazine-2,3-dione] | selective | impaired | significantly different from untreated control cells | significantly different from untreated control cells | did not stain positive for autophagy | exhibited traits of apoptosis; also recorded: less pronounced than 2155-14 | activity towards A549 cells [1]: improved activity; effect on MAPK/PI3K cell populations [3]: no effect on either cell population |
| lack of HDAC inhibition | lack of HDAC inhibition | O=C1NC[C@H](Cc2ccccc2)N(C[C@@H]2CCCN2C[C@@H](CC2CCCCC2)N2C[C@H](Cc3ccc(O)cc3)N(CCc3ccccc3)C(=O)C2=O)C1=O [Compound 2155-14, (S)-1((R)-1((S)-2-(((S)-6-benzyl-2,3-dioxopiperazin-1-yl)methyl)pyrrolidin-1-yl)-3-cyclohexylpropan-2-yl)-5-(4-hydroxybenzyl)-4-phenethylpiperazine-2,3-dione] | selective | impaired | significantly different from untreated control cells | significantly different from untreated control cells | stained positive for autophagy as early as 4 h after compound addition; also recorded: At 24 h the intensity of autophagy staining increased; also recorded: stain positive for autophagy at 4 h | exhibited traits of apoptosis; also recorded: extensive cell death | IC50 ([1]; Homo sapiens, A549): > 100 µM; inhibition of WM266-4 viability (WM266-4 cells [2]; 100 μM, 72 h): completely inhibited viability; viability after pre-incubation with caspase inhibitors (WM266-4 cells [2]; 24 h, 10 μM Z-IETD-FMK and Z-VAD-FMK): almost completely restored; viability of WM266-4 cells with caspase inhibitor pre-treatment (WM266-4 cells [2]; 48 h of exposure): ~25%; IC50 (WM266-4 cells [2]; 72 h): 4 ± 0.5 µM; IC50 (WM266-4 cells [2]; 72 h, listed as 2529-1): 1.5 ± 0.2 µM; PI3K-activated cells [3]: absence of PI3K activation; cells with single pathway activation [3]: not significantly affected; decrease of cell population with dual pathway activation vs untreated control [3]: ~20%; increase of cells where both pathways were inactive [3]: approximately 10%; cells undergoing autophagy (WM266-4 cells [6]; quantitation of representative image, FIG. 18D): 57% |
